Patent publication US20220175754A1, “P97 INHIBITORS FOR TREATING CANCER AND NEURODEGENERATIVE DISORDERS” (Lundquist Institute for Biomedical Innovation at …, priority 2018, published 2022)
Read-outs that look alike come from different tables or passages of the source.

What was measured:
P97 = P97 (Homo sapiens, UniProt P55072); assay: P97 Biomolgreen ATPase assay, 200 μM ATP; type: biochemical
Description: The following Table IV provides relevant results. The compound number in Table IV correlates to the numbered compounds in Table III.

CCRF-CEM = assay: Anti-proliferative activity, CCRF-CEM; type: cell-based; conditions: Homo sapiens, blood cancer, read-out: Anti-proliferative activity (μM) of NMS-873
Molt4 = assay: Anti-proliferative activity, Molt4; type: cell-based; conditions: Homo sapiens, MOLT-4, blood cancer, read-out: Anti-proliferative activity (μM) of NMS-873
A549 = assay: Anti-proliferative activity, A549; type: cell-based; conditions: Homo sapiens, Lung Cancer, read-out: Anti-proliferative activity (μM) of NMS-873
Description: (§1) Cells were seeded on a 384-well solid white plate (5,000 cells/well). Cells were transfected with luciferase siRNA or p97 siRNA (10 nM) for 48 h or treated with compounds for the indicated amount of time. Caspase-3/7 Glo, caspase-6 Glo, caspase-8 Glo, or caspase-9 Glo (Promega) was added into each well and mixed by shaking at 500 rpm for 1 min. Luminescence signal was determined after incubation at room temperature for 1 h. Cellular viability was determined with Cell-Titer-Glo reagent (Promega). […] IC50 values were calculated from fitting the percentage of luminescence signal normalized to DMSO treated cells).

RPMI8226 = assay: Anti-proliferative activity, RPMI8226; type: cell-based; conditions: Homo sapiens, RPMI-8226, Multiple Myeloma, read-out: Anti-proliferative activity (μM) of NMS-873
HCT15 = assay: Anti-proliferative activity, HCT15; type: cell-based; conditions: Homo sapiens, HCT-15, Colon, read-out: Anti-proliferative activity (μM) of NMS-873
Description: (§2) Cells were seeded on a 384-well solid white plate (5,000 cells/well). Cells were transfected with luciferase siRNA or p97 siRNA (10 nM) for 48 h or treated with compounds for the indicated amount of time. […] Cellular viability was determined with Cell-Titer-Glo reagent (Promega). […] IC50 values were calculated from fitting the percentage of luminescence signal normalized to DMSO treated cells).

A375 (BRAFV600E) = assay: Anti-proliferative activity, A375; type: cell-based; conditions: Homo sapiens, A-375, skin cancer, read-out: Anti-proliferative activity (μM) of NMS-873
SKMel2 (NRASQ61R) = assay: Anti-proliferative activity, SKMel2; type: cell-based; conditions: Homo sapiens, SK-MEL-2, skin cancer, read-out: Anti-proliferative activity (μM) of NMS-873
Description: as §1

MDA-MB-468 = assay: Anti-proliferative activity, MDA-MB-468; type: cell-based; conditions: Homo sapiens, Breast, read-out: Anti-proliferative activity (μM) of NMS-873
Description: as §2

MCF-7 = assay: Anti-proliferative activity, MCF-7; type: cell-based; conditions: Homo sapiens, MCF7, Breast, read-out: Anti-proliferative activity (μM) of NMS-873
Description: as §2

WM3918 (BRAF/NRAS WT) = assay: Anti-proliferative activity, WM3918; type: cell-based; conditions: skin cancer, read-out: Anti-proliferative activity (μM) of NMS-873
Description: as §1

SW620 = assay: Anti-proliferative activity, SW620; type: cell-based; conditions: Homo sapiens, SW-620, Colon, read-out: Anti-proliferative activity (μM) of NMS-873
SKMel5 (BRAFV600E) = assay: Anti-proliferative activity, SKMel5; type: cell-based; conditions: Homo sapiens, SK-MEL-5, skin cancer, read-out: Anti-proliferative activity (μM) of NMS-873
Description: as §1

PANC-1 = assay: Anti-proliferative activity, PANC-1; type: cell-based; conditions: Homo sapiens, Pancreatic cancers, read-out: Anti-proliferative activity (μM) of NMS-873
Description: as §1

LoxIMVI (BRAFV600E) = assay: Anti-proliferative activity, LoxIMVI; type: cell-based; conditions: Homo sapiens, LOX IMVI, skin cancer, read-out: Anti-proliferative activity (μM) of NMS-873
Description: as §1

HCT116 = assay: Anti-proliferative activity, HCT116; type: cell-based; conditions: Homo sapiens, HCT-116, Colon, read-out: Anti-proliferative activity (μM) of NMS-873
Description: as §2

BxPC-3 = assay: Anti-proliferative activity, BxPC-3; type: cell-based; conditions: Homo sapiens, Pancreatic cancers, read-out: Anti-proliferative activity (μM) of NMS-873
Description: as §1

MDA-MB-231 = assay: Anti-proliferative activity, MDA-MB-231; type: cell-based; conditions: Homo sapiens, Breast, read-out: Anti-proliferative activity (μM) of NMS-873
Description: as §2

[1] = read-out: P97 Biomolgreen, IC50

P97, sequence (P55072 whole entry): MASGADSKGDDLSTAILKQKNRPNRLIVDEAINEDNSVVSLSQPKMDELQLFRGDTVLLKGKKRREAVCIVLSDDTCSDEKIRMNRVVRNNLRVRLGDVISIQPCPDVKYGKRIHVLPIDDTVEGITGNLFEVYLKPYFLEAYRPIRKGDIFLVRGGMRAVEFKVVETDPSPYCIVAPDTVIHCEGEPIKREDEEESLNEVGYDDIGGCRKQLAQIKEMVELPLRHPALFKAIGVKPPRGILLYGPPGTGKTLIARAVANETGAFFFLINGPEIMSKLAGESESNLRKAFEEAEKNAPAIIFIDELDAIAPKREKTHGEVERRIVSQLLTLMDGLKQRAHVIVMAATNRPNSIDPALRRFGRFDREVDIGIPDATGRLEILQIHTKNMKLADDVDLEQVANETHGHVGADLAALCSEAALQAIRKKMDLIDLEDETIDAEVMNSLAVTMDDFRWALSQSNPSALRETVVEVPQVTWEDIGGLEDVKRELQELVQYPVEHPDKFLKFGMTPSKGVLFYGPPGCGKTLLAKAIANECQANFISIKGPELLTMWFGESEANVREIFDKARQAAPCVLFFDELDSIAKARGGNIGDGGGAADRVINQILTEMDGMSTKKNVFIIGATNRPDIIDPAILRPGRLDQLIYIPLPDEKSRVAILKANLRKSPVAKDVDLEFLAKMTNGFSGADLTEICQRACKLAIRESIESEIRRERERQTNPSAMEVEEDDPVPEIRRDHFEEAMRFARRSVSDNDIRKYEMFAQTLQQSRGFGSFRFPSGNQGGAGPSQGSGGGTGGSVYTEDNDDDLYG

For OCC#Cc1ccc(OCc2nnc(SC3C=CCCC3)n2-c2cccnc2)cc1 (stereo not shown) [Compound 91], the IC50 (P97; [1]) was 32 nM.
[2H]C1([2H])C([2H])([2H])C([2H])([2H])C([2H])(Sc2nnc(COc3ccc(C#CCNC4CCN(C)CC4)c(C)c3)n2-c2cccnc2)C1([2H])[2H] [Compound 96] was tested, and the IC50 (P97) was 67 nM.
Cc1cc(OCc2nnc(SC3CCCC3)n2-c2cccnc2)ccc1-c1ccc(S(C)(=O)=O)cc1 [NMS-873] was tested, and the IC50 (CCRF-CEM) was 0.1 µM, the IC50 (Molt4) was 0.92 µM and the IC50 (A549) was 2.2 µM. The IC50 (RPMI8226) was 0.08 µM, the IC50 (HCT15) was 2.1 µM and the IC50 (A375 (BRAFV600E)) was 2.27 µM. The IC50 (SKMel2 (NRASQ61R)) was 3.04 µM, the IC50 (MDA-MB-468) was 1.36 µM and the IC50 (MCF-7) was 3.07 µM. It also gave an IC50 (WM3918 (BRAF/NRAS WT)) of 2.35 µM, an IC50 (SW620) of 2.6 µM and an IC50 (SKMel5 (BRAFV600E)) of 1.95 µM. It also gave an IC50 (PANC-1) of 5 µM, an IC50 (LoxIMVI (BRAFV600E)) of 0.65 µM and an IC50 (HCT116) of 1.2 µM. For the same compound, the IC50 (BxPC-3) was 2.5 µM and the IC50 (MDA-MB-231) was 2.95 µM.
For N#Cc1ccc(C#CCOCc2nnc(SC3CCCC3)n2-c2cccnc2)cc1 [Compound 56], the IC50 (P97) was > 6700 nM.
Cc1cc(OCc2nnc(SC3CCCC3)n2-c2cccnc2)ccc1C#CCOC(=O)NCCOCCNC(=O)CC1C2CC3CC(C2)CC1C3 (stereo not shown) [Compound 111] gave an IC50 (P97) of 30 nM.
For Cc1cc(OCc2nnc(SC3CCCC3)n2-c2cccnc2)ccc1C#CCNC(=O)OC(C)(C)C [Compound 49], the IC50 (P97) was 260 nM.
With C#Cc1ccc(OCc2nnc(CC3CC3)n2-c2cccnc2)cc1C [Compound 55] the IC50 (P97; [1]) was 5300 nM.
COC(C)NCC#Cc1ccc(OCc2nnc(SC3CCCC3)n2-c2cccnc2)cc1C (stereo not shown) [Compound 12] was tested, and the IC50 (P97) was 29 nM.
For Cc1cc(OCc2nnc(SC3C=CCCC3)n2-c2cccnc2)ccc1C#CCOC1CCCCO1 (stereo not shown) [Compound 57], the IC50 (P97; [1]) was 110 nM.
CCC(=O)NCC#Cc1ccc(OCc2nnc(SCC3CO3)n2-c2cccnc2)cc1C (stereo not shown) [Compound 129] was tested, and the “P97 Biomolgreen; 200 μM ATP; IC50 (μM)” value (P97) was “Not active”.
For CCC(=O)NCC#Cc1ccc(OCc2nnc(SC[C@@]3(C)CO3)n2-c2cccnc2)cc1C [Compound 130], the “P97 Biomolgreen; 200 μM ATP; IC50 (μM)” value (P97) was “Not active”.
With CN1CCC(NC(=O)OCC#Cc2ccc(OCc3nnc(SC4C=CCCC4)n3-c3cccnc3)cc2C#N)CC1 (stereo not shown) [Compound 121] the IC50 (P97; [1]) was 30 nM.
In the case of Cc1cc(OCc2nnc(SC3CCCC3)n2-c2cccnc2)ccc1C#CCOC(=O)NCCNC(=O)CC1C2CC3CC(C2)CC1C3 (stereo not shown) [Compound 110], the IC50 (P97) is reported as 60 nM.
With Cc1cc(OCc2nnc(SC3C=CCCC3)n2-c2cccnc2)ccc1C#CCOC(=O)N1CCN(C)CC1 (stereo not shown) [Compound 108] the IC50 (P97) was 15 nM.
[2H]C1([2H])C([2H])([2H])C([2H])([2H])C([2H])(Sc2nnc(COc3ccc(C#CCO)c(C)c3)n2-c2cccnc2)C1([2H])[2H] [Compound 117] showed an IC50 (P97) of 990 nM.
Cc1cc(OCc2nnc(SC3C=CCCC3)n2-c2cccnc2)ccc1C#CCOC(=O)NCCN1CCN(C(C)C)CC1 (stereo not shown) [Compound 71] showed an IC50 (P97) of 26 nM.
With Cc1cc(OCc2nnc(SC3C=CCCC3)n2-c2cccnc2)ccc1C#CCOC(=O)NC1CCN(C)CC1 (stereo not shown) [Compound 75] the IC50 (P97) was 25 nM.
For [2H]C1([2H])C([2H])([2H])C([2H])([2H])C([2H])(Sc2nnc(COc3ccc(C#CC(C)OC(=O)NCCN4CCN(C(C)C)CC4)c(C)c3)n2-c2cccnc2)C1([2H])[2H] (stereo not shown) [Compound 42], the IC50 (P97) was 130 nM.
